Values quoted from earlier work as cited in US20260284070A1, “Ophthalmic Solution of Brinzolamide” (Micro Labs Limited, priority 2023, published 2026).

Conditions: physiological pH (pH 6.0 to 7.5)

Solubility: very limited solubility
Compound: CCN[C@H]1CN(CCCOC)S(=O)(=O)c2sc(S(N)(=O)=O)cc21 [Brinzolamide, (R)-(+)-4-Ethylamino-2-(3-methoxypropyl)-3,4-dihydro-2H-thieno[3,2-e]-1,2-thiazine-6-sulfonamide-1,1-dioxide]
